Source: patent US20180134788A1, “Methods and Pharmaceutical Compositions (NTSR1 Inhibitors) for the Treatment of Hepatocellular Carcinomas” (INSERM (Institut National de la Sante et de la Recherche …, priority 2015, published 2018)

Tests used:
Type in all cases: cell-based
[1] = tested on: NTSR1 expression in HEP 3B and PLC/PRF5 cells; assay: NTSR1 immunocytochemistry labeling in HCC cell lines; details: PLC/PRF5 and HEP3B, 48 h; 1 μM SB216763 or 5 μM SR48692
Method: (A) NTS, NTSR2, NTSR3, and NTSR1 transcript analysis from 400 ng of HuH7, HEP 3B, and PLC/RF5, total RNA. NTSR1 A and NTSR1 B show the amplicon from two different set of primers. (B) Typical immunocytochemistry labeling for NTSR1 and DAPI in HEP 3B and PLC/RF5 cells. Cells were seeded on glass slides, grown for 48 h, and immunocytochemistry was performed as described in the Materials and Methods section. (C) NTSR1 transcript analysis from HuH7, HEP 3B and PLC/RF5 of total RNA from cells treated or not with […] LiCl for 6 h. (D) Typical immunocytochemistry NTSR1 labeling of HEP 3B and PLC/RF5 cells treated with 1 μM SB 216763 for 6 h.
(A) Typical immunocytochemistry labeling for NTSR1 (Top) and EGFR (Bottom) in PLC/RF5 and HEP 3B cells treated or not with 1 μM SB216763 or 5 μM SR4892 or both for 48 h. (B and C) Representative western blot analyses of Tyr 1173 phosphorylated EGFR, EGFR, and actin of HEP 3B and PLC/RF5 treated as indicate above.
Among the three cell lines studied, only PLC/PRF5 cells presented a dysregulation in the beta catenin pathway with a deletion in Axin (E4/−). […] We previously hypothesized that NTSR1 expression was correlated with deregulated wnt/beta catenin pathways. To evaluate this hypothesis, we forced the cellular and nuclear relocation of β-catenin in these cells lines with the LiCl, and an inhibitor of the glycogen synthase kinase (GSK) 3β, the SB216763. LiCl and SB216763 are known to decrease the degradation of β-catenin by inhibiting GSK-3 and promoting the accumulation of β-catenin in the cytoplasm of liver cancer cells.
It was previously shown that the NTS/NTSR1 complex potentiates EGF signaling in liver, colon, prostate, lung, and breast cancer. We investigated the possible relation between NTSR1 expression and EGFR expression and activation. […] Treatment with SR48692, a specific NTSR1 antagonist, decreased the expression of EGFR, whereas NTSR1 expression was not altered. When the combined treatment with SB216763 and SR48692 is used, the effect of SB216763 on EFGR expression is limited by the presence of the NTSR1 antagonist (FIG. 5A).

[2] = tested on: PLC-R1a and PLC-R2a cells; assay: Migration assay on type 1 collagen, PLC/PRF5 NTSR1 overexpressing clones; details: 5 μM SR 48692, vs DMSO
Method: (§1) (A) Speed of migration on type 1 collagen of HEP 3B and NTSR1 overexpressing clones treated or not with 1/100 NTS or 1/100 Long Fragment NTS antibody. Results represent the mean±SEM of 5 independent experiments. (B) Speed of migration on type 1 collagen of PLC/RF5 and NTSR1 overexpressing clones in the presence or not of 5 μM SR 48692. Results represent the mean±SEM of 3 independent experiments. (C) Numbers of invasive cells crossing the type I collagen in Boyden chamber when HEP 3B and NTSR1 overexpressing clones were treated or not with NTS or Long Fragment NTS antibody or 5 μM. SR 48692. Results are expressed relatively to wild type cells and represent the mean±SEM of 5 to 7 independent experiments.
Migration assays were used to evaluate the effect of NTS/NTSR1 on cancer cell migration, another hallmark contributing to the invasion and metastasis of cancers. The procedure described in the methods section allows the comparison of the migration speed between both cell lines at the same time over a period of 48 h, and on the intact type I collagen matrix. […] Similar observations were made with PLC/PRF5 cells and derivative clones.

[3] = tested on: HEP3B cells with upregulated NTSR1 (HEP-R1a, HEP-R1b); assay: Boyden chamber invasion on type-I collagen-coated inserts; details: HEP3B NTSR1 clones, 36 hours, 5 μM SR 48692 or antibodies
Method: as §1
In parallel, Boyden chambers were used to examine the invasiveness characteristics of HCC cancer cells, on type-I collagen-coated inserts over 36 hours incubation. Compared with HEP 3B cells, the number of invading cancer cells for HEP-R1a cells and HEP-R1b cells is increased by 211±19% (p<0.01) and 617±94% (p<0.01), respectively. To determine whether NTS contributes to cellular invasion, cells were exposed to the NTSR1 antagonist, or two antibodies directed against NTS or the long fragment NTS. […] In our hands, the PLC/PRF5 cells were very invasive.

`COc1cccc(OC)c1-c1cc(C(=O)NC2(C(=O)O)C3CC4CC(C3)CC2C4)nn1-c1ccnc2cc(Cl)ccc12` (stereo not shown) [SR48692] was tested, and the NTSR1 expression [1] was “not altered”, the “decrease of migration speed” value ([2]; PLC-R1a cells) was 27% and the “decrease of migration speed” value ([2]; PLC-R2a cells) was 33%. For the same compound, the “increase of cellular invasion when NTSR1 is upregulated” value [3] was “fully or partially abolished”.
